Results reported in US11795510B2, “Identification of epigenomic reprogramming in cancer and uses thereof” (The Johns Hopkins University, priority 2016, dated 2023).
“Also recorded” adds a separate entry of the source.

Assays:
Type in all cases: cell-based, human
[1] = system: global chromatin modifications (H3K9Me2/3, acetylation) in distant metastatic subclones (A38Lg); assay: Western blots of histone modifications, distant metastatic subclones
Protocol: Histones were acid extracted as described and western blots performed on 3.5 ug histones, which were checked by Ponceau stains prior to western blot to ensure equal loading. Densitometry was performed with ImageJ software. RNA was extracted with Trizol reagent (Life Technologies) and isopropanol precipitated. Genomic DNA was purified with MasterPure DNA extraction reagents (Epicenter). Immunohistochemistry, H&E staining, and immunofluorescence on formalin-fixed, paraffin-embedded (FFPE) tissue microarray sections (TMAs) were performed according to standard procedures.
(§1) RNAi experiments were performed with siRNA transfections (Oligofectamine, Life Technologies) using negative control siRNA (Sigma, SIC001) and pre-designed siRNA oligonucleotides against indicated genes in parallel (Sigma, PGD: SASI_Hs02 00334150, CDH2: SASI_Hs01_00153995, TOP2B: SASI_Hs02_00311874). siRNAs against mutant KRAS^G12V (CUACGCCAACAGCUCCAAC) (SEQ ID NO:1) were custom designed. Cells were incubated with siRNAs for 4 days after transfection and harvested. For drug treatments in 2-D, cells were grown to 70-80% confluency and treated for 3 days with 250 uM 6AN or DMSO negative control.

[2] = system: local-regional PDAC samples; assay: 3-D suspension tumorsphere assay, local-regional PDACs
Protocol: 3-D matrigel assays were adapted from Cheung et al. (Control of alveolar differentiation by the lineage transcription factors GATA6 and HOPX inhibits lung adenocarcinoma metastasis. Cancer Cell 23, 725-38 (2013)). Briefly, 2-D cultures were trypsinized into single cells, 4,000cells/mL were suspended and thoroughly mixed in ice-cold DMEM containing 5% matrigel (BD systems) and 2% FBS (+/−DMSO/6AN as needed), 500 ul plated in quadruplicate into 24 well ultra-low attachment plates, and incubated for at least 7 days to allow tumor growth. Well-formed tumors were then counted and representative photographs taken with an EVOS instrument. 3-D suspension tumorsphere assays were performed with 20,000 starting cells/well in ultra-low attachment 6 well plates as described, and tumors counted/photographed after at least 7 days of tumor growth.

[3] = system: A38Lg cells; assay: RNA-seq of control (DMSO) and 6AN treated cells, differentially expressed genes
Protocol: as §1
Tests for statistical significance (two-tailed students t-test) were performed on data collected from technical replicate (performed in parallel at the same time) or biological replicate (performed at different times) experiments as indicated in the figure legends using excel software for western blot densitometry, MTT assays, and tumor measurements. Whole genome bisulfite sequencing and RNA-seq were performed with HiSeq instruments (Illumina) as described in Hansen et al. (Increased methylation variation in epigenetic domains across cancer types. Nat Genet 43, 768-75 (2011)). ChIP assays were performed as previously described for fixed cells with sonication. For ChIP-qPCR, equal amounts of paired input/IP DNA were amplified by real-time PCR (Roche LightCycler96) and fold enrichments calculated. Primer sequences are listed in Supplementary Table 11. […] IP sequencing reads were normalized to their corresponding inputs. Sequencing procedures, bioinformatics methods including domain calls, and statistical analyses are described in detail within the supplementary methods section.
RNA-Seq data processing. 100 bp paired-end HiSeq2000 sequencing reads were aligned against human genome (hg19) by OSA (version 2.0.1) with default parameters. After alignment, only uniquely aligned reads were kept for further analysis. Gene annotation information was downloaded from ENSEMBL (ensembl.com, release 66). Reads count for each gene of all samples were estimated using HTSeq (huber.embl.de/users/anders/HTSeq/doc/overview.html) and then were used to identify differentially expressed (DE) genes using DESeq package. Genes with FDR<0.01 and fold-change>1.5 were considered DE genes.

[4] = genes down in A38Lg vs A38Per and down in 6AN vs DMSO treated A38Lg, RNA-seq DE genes
[5] = genes down in A38Lg vs A38Per and up in 6AN vs DMSO treated A38Lg, RNA-seq DE genes
[6] = genes recurrently down vs. A38Per and down in 6AN treated A38Lg cells, out of all 6AN down genes
[7] = genes recurrently down vs. A38Per and down in 6AN treated A38Lg cells, out of all recurrent down genes
[8] = genes recurrently down vs. A38Per and up in 6AN treated A38Lg cells, out of all 6AN up genes
[9] = genes recurrently down vs. A38Per and up in 6AN treated A38Lg cells, out of all recurrent down genes
[10] = genes recurrently up across all samples vs. A38Per and down in 6AN vs. DMSO treated A38Lg cells, out of all 6AN down genes
[11] = genes recurrently up vs. A38Per and down in 6AN treated A38Lg cells, out of all recurrent up genes
[12] = genes recurrently up vs. A38Per and up in 6AN treated A38Lg cells, out of all recurrent up genes
[13] = genes up in A38Lg vs A38Per and down in 6AN vs DMSO treated A38Lg, RNA-seq DE genes
[14] = genes up in A38Lg vs A38Per and up in 6AN vs DMSO treated A38Lg, RNA-seq DE genes

SMILES: NC(=O)c1ccc(N)nc1 [6AN, 6-aminonicotinamide]
- persistence of chromatin changes upon removal of 6AN from the media ([1]; 3d treatment followed by removal for an additional 3d): persisted
- H3K27Me3 or H4K20Me3, western blot densitometry ([1]; across distant metastatic subclones): minimal or non-recurrent effects
- reprogrammed chromatin modifications (H3K9Me2, acetylation), western blot densitometry ([1]; across distant metastatic subclones, 250 uM, 3 days): quantitatively reversed; also recorded: selectively reversed
- acetylation (western blot) ([1]; distant metastatic subclones): decreased
- global H3K9Me2 (western blot) ([1]; distant metastatic subclones): generally increased
- reprogrammed chromatin state (global H3K9Me2/3 and acetylation, western blots) ([1]; paired lung metastasis A38Lg): reversed the reprogrammed chromatin state
- tumor formation in 3-D suspension tumorsphere assays [2]: minimal effects; also recorded: did not interfere
- Coregulated/6AN down (38Lg down/6AN down): coregulated genes / all 6AN down genes [3, 4]: 277/1968
- Coregulated/38Lg down (38Lg down/6AN down): coregulated genes / all 38Lg down genes [3, 4]: 277/4402
- Coregulated/6AN down (38Lg down/6AN down), percent ([3]; genes down in A38Lg vs A38Per and down in 6AN vs DMSO treated A38Lg, share of 6AN down genes): (14%)
- Coregulated/38Lg down (38Lg down/6AN down), percent ([3]; genes down in A38Lg vs A38Per and down in 6AN vs DMSO treated A38Lg, share of 38Lg down genes): (0.06%)
- Coregulated/6AN up (38Lg down/6AN up): coregulated genes / all 6AN up genes [3, 5]: 915/2192
- Coregulated/38Lg down (38Lg down/6AN up): coregulated genes / all 38Lg down genes [3, 5]: 915/4402
- Coregulated/6AN up (38Lg down/6AN up), percent ([3]; genes down in A38Lg vs A38Per and up in 6AN vs DMSO treated A38Lg, share of 6AN up genes): (42%)
- Coregulated/38Lg down (38Lg down/6AN up), percent ([3]; genes down in A38Lg vs A38Per and up in 6AN vs DMSO treated A38Lg, share of 38Lg down genes): (21%)
- Recurrent Down/6AN Down: Coregulated/6AN down (gene count ratio) [3, 6]: 111/1968
- Recurrent Down/6AN Down: Coregulated/6AN down (percent) [3, 6]: (0.06%)
- Recurrent Down/6AN Down: Coregulated/Recurrent down (gene count ratio) [3, 7]: 111/1842
- Recurrent Down/6AN Down: Coregulated/Recurrent down (percent) [3, 7]: (0.06%)
- Recurrent Down/6AN Up: Coregulated/6AN up (gene count ratio) [3, 8]: 332/2192
- Recurrent Down/6AN Up: Coregulated/6AN up (percent) [3, 8]: (15%)
- Recurrent Down/6AN Up: Coregulated/Recurrent down (gene count ratio) [3, 9]: 332/1842
- Recurrent Down/6AN Up: Coregulated/Recurrent down (percent) [3, 9]: (18%)
- Recurrent Up/6AN Down: Coregulated/6AN down (gene count ratio) [3, 10]: 255/1968
- Recurrent Up/6AN Down: Coregulated/6AN down (percent) [3, 10]: (13%)
- Recurrent Up/6AN Down: Coregulated/Recurrent up (gene count ratio) [3, 11]: 255/891
- Recurrent Up/6AN Down: Coregulated/Recurrent up (percent) [3, 11]: (28.6%)
- Recurrent Up/6AN Up: Coregulated/6AN up (gene count ratio) ([3]; genes recurrently up vs. A38Per and up in 6AN treated A38Lg cells, out of all 6AN up genes): 82/2192
- Recurrent Up/6AN Up: Coregulated/Recurrent up (gene count ratio) [3, 12]: 82/891
- Recurrent Up/6AN Up: Coregulated/Recurrent up (percent) [3, 12]: (9%)
- Coregulated/6AN down (38Lg up/6AN down): coregulated genes / all 6AN down genes [3, 13]: 1032/1968
- Coregulated/38Lg up (38Lg up/6AN down): coregulated genes / all 38Lg up genes [3, 13]: 1032/4368
- Coregulated/6AN down (38Lg up/6AN down), percent ([3]; genes up in A38Lg vs A38Per and down in 6AN vs DMSO treated A38Lg, share of 6AN down genes): (52%)
- Coregulated/38Lg up (38Lg up/6AN down), percent ([3]; genes up in A38Lg vs A38Per and down in 6AN vs DMSO treated A38Lg, share of 38Lg up genes): (24%)
- Coregulated/6AN up (38Lg up/6AN up): coregulated genes / all 6AN up genes [3, 14]: 379/2192
- Coregulated/38Lg up (38Lg up/6AN up): coregulated genes / all 38Lg up genes [3, 14]: 379/4368
- Coregulated/6AN up (38Lg up/6AN up), percent ([3]; genes up in A38Lg vs A38Per and up in 6AN vs DMSO treated A38Lg, share of 6AN up genes): (17%)
- Coregulated/38Lg up (38Lg up/6AN up), percent ([3]; genes up in A38Lg vs A38Per and up in 6AN vs DMSO treated A38Lg, share of 38Lg up genes): (0.09%)
